Laboratory results as given in patent US12559492B2, “BRAF degraders” (C4 Therapeutics, Inc., priority 2020, dated 2026).

Biological target: BRAF^V600E protein (Homo sapiens, UniProt P15056, V600E)
Experiment: HiBiT cellular BRAF V600E degradation assay
Assay type: cell-based
Conditions: 24 h incubation; for DC50: A375.10 cells (HiBiT tag knocked in at N-terminal of BRAF V600E), concentration at which 50% of total cellular BRAF V600E is degraded; for Emax / HiBit 24 h Emax: A375.10 cells, Emax = amount of residual protein remaining in the cell after compound treatment; for Emax: read-out: HiBit 24 h Emax

BRAF^V600E protein, sequence (P15056 whole entry V600E): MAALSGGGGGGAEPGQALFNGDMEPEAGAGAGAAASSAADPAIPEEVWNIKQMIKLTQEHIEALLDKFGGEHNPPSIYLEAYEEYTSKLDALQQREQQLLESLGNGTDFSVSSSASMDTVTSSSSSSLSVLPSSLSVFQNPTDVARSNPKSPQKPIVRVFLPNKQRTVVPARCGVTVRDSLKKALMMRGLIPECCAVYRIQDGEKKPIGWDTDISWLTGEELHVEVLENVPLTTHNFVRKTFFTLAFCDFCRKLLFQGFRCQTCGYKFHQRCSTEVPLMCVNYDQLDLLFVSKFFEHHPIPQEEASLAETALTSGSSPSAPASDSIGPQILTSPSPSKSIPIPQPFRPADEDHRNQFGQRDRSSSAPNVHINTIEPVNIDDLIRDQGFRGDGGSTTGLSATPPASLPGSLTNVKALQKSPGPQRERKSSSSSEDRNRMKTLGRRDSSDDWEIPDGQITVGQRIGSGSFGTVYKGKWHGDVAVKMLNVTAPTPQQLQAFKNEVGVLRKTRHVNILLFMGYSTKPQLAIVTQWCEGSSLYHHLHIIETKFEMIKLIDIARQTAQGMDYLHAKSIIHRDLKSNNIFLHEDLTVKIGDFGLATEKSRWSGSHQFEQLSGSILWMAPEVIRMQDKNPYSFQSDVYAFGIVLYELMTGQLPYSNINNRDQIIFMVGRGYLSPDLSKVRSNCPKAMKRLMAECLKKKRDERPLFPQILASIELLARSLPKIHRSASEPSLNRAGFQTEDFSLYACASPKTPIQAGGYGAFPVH

SMILES | DC50 | Emax | HiBit 24 h Emax
CCN(C)S(=O)(=O)Nc1ccc(F)c(C(=O)c2c[nH]c3ncc(-c4ccc(N5CCN(C(=O)CCCN6CCC(c7ccc(OC8CCC(=O)NC8=O)cc7)CC6)CC5)cc4)cc23)c1F (centres unmarked) [Example A15, 5-[4-[4-[4-[4-[4-(2,6-Dioxopiperidin-3-yl)oxyphenyl]piperidin-1-yl]butanoyl]piperazin-1-yl]phenyl]-3-[3-[[ethyl(methyl)sulfamoyl]amino]-2,6-difluorobenzoyl]-1H-pyrrolo[2,3-b]pyridine] | 24 nM | 14% | 
CCN(C)S(=O)(=O)Nc1ccc(F)c(C(=O)c2c[nH]c3ncc(-c4cnc(N5CCN(C(=O)CN6CCN(c7ccc(NC8CCC(=O)NC8=O)cc7)CC6)CC5)nc4)cc23)c1F (centres unmarked) [Example A16, 5-[2-[4-[2-[4-[4-[(2,6-Dioxopiperidin-3-yl)amino]phenyl]piperazin-1-yl]acetyl]piperazin-1-yl]pyrimidin-5-yl]-3-[3-[[ethyl(methyl)sulfamoyl]amino]-2,6-difluorobenzoyl]-1H-pyrrolo[2,3-b]pyridine] | 8 nM | 11% | 
CCN(C)S(=O)(=O)Nc1ccc(F)c(C(=O)c2c[nH]c3ncc(-c4ccc(N5CCN(C(=O)CCCN6CCC(c7ccc(NC8CCC(=O)NC8=O)cc7)CC6)CC5)nc4)cc23)c1F (centres unmarked) [Example A17, 5-[6-[4-[4-[4-[4-[(2,6-Dioxopiperidin-3-yl)amino]phenyl]piperidin-1-yl]butanoyl]piperazin-1-yl]pyridin-3-yl]-3-[3-[[ethyl(methyl)sulfamoyl]amino]-2,6-difluorobenzoyl]-1H-pyrrolo[2,3-b]pyridine] | 44 nM | 14% | 
CCN(C)S(=O)(=O)Nc1ccc(F)c(C(=O)c2c[nH]c3ncc(-c4cnc(N5CCN(C(=O)CCCN6CCC(c7ccc(NC8CCC(=O)NC8=O)cc7)CC6)CC5)nc4)cc23)c1F (centres unmarked) [Example A18, 5-[2-[4-[4-[4-[4-[(2,6-Dioxopiperidin-3-yl)amino]phenyl]piperidin-1-yl]butanoyl]piperazin-1-yl]pyrimidin-5-yl]-3-[3-[[ethyl(methyl)sulfamoyl]amino]-2,6-difluorobenzoyl]-1H-pyrrolo[2,3-b]pyridine] | 42 nM | 15% | 
CCN(C)S(=O)(=O)Nc1ccc(F)c(C(=O)c2c[nH]c3ncc(-c4ccc(CN5CCC(C(=O)N6CCN(c7ccc(OC8CCC(=O)NC8=O)cc7)CC6)C5)cc4)cc23)c1F (centres unmarked) [Example A19, 5-[4-[[3-[4-[4-(2,6-Dioxopiperidin-3-yl)oxyphenyl]piperazine-1-carbonyl]pyrrolidin-1-yl]methyl]phenyl]-3-[3-[[ethyl(methyl)sulfamoyl]amino]-2,6-difluorobenzoyl]-1H-pyrrolo[2,3-b]pyridine] | 84 nM | 19% | 
CCN(C)S(=O)(=O)Nc1ccc(F)c(C(=O)c2c[nH]c3ncc(-c4ccc(CN5CCC(C(=O)N6CCC(c7ccc(OC8CCC(=O)NC8=O)cc7)CC6)C5)cc4)cc23)c1F (centres unmarked) [Example A20, 5-[4-[[3-[4-[4-(2,6-Dioxopiperidin-3-yl)oxyphenyl]piperidine-1-carbonyl]pyrrolidin-1-yl]methyl]phenyl]-3-[3-[[ethyl(methyl)sulfamoyl]amino]-2,6-difluorobenzoyl]-1H-pyrrolo[2,3-b]pyridine] | 138 nM | 24% | 
CCN(C)S(=O)(=O)Nc1ccc(F)c(C(=O)c2c[nH]c3ncc(-c4ccc(CN5CCN(CC(=O)N6CCC(c7ccc(NC8CCC(=O)NC8=O)cc7)CC6)CC5)cc4)cc23)c1F.O=C(O)C(F)(F)F (centres unmarked) [Example A21, 5-[4-[[4-[2-[4-[4-[(2,6-Dioxopiperidin-3-yl)amino]phenyl]piperidin-1-yl]-2-oxoethyl]piperazin-1-yl]methyl]phenyl]-3-[3-[[ethyl(methyl)sulfamoyl]amino]-2,6-difluorobenzoyl]-1H-pyrrolo[2,3-b]pyridine;2,2,2-trifluoroacetic acid] | 21 nM |  | 13%
CCN(C)S(=O)(=O)Nc1ccc(F)c(C(=O)c2c[nH]c3ncc(-c4ccc(CN5CCN(C(=O)CN6CCC(c7ccc(OC8CCC(=O)NC8=O)cc7)CC6)CC5)cc4)cc23)c1F (centres unmarked) [Example A22, 5-[4-[[4-[2-[4-[4-(2,6-Dioxopiperidin-3-yl)oxyphenyl]piperidin-1-yl]acetyl]piperazin-1-yl]methyl]phenyl]-3-[3-[[ethyl(methyl)sulfamoyl]amino]-2,6-difluorobenzoyl]-1H-pyrrolo[2,3-b]pyridine] | 77 nM | 20% | 
CCN(C)S(=O)(=O)Nc1ccc(F)c(C(=O)c2c[nH]c3ncc(-c4ccc(CN5CCN(C(=O)CN6CCC(c7ccc(NC8CCC(=O)NC8=O)cc7)CC6)CC5)cc4)cc23)c1F (centres unmarked) [Example A23, 5-[4-[[4-[2-[4-[4-[(2,6-Dioxopiperidin-3-yl)amino]phenyl]piperidin-1-yl]acetyl]piperazin-1-yl]methyl]phenyl]-3-[3-[[ethyl(methyl)sulfamoyl]amino]-2,6-difluorobenzoyl]-1H-pyrrolo[2,3-b]pyridine] | 19 nM | 13% | 
CCN(C)S(=O)(=O)Nc1ccc(F)c(C(=O)c2c[nH]c3ncc(-c4ccc(CN5CCN(C(=O)CN6CCN(c7ccc(NC8CCC(=O)NC8=O)cc7)CC6)CC5)cc4)cc23)c1F.O=C(O)C(F)(F)F (centres unmarked) [Example A24, 5-[4-[[4-[2-[4-[4-[(2,6-Dioxopiperidin-3-yl)amino]phenyl]piperazin-1-yl]acetyl]piperazin-1-yl]methyl]phenyl]-3-[3-[[ethyl(methyl)sulfamoyl]amino]-2,6-difluorobenzoyl]-1H-pyrrolo[2,3-b]pyridine; 2,2,2-trifluoroacetic acid] | 30 nM |  | 13%
CCN(C)S(=O)(=O)Nc1ccc(F)c(C(=O)c2c[nH]c3ncc(-c4ccc(CN5CCN(C(=O)CN6CCN(c7cccc(NC8CCC(=O)NC8=O)c7)CC6)CC5)cc4)cc23)c1F (centres unmarked) [Example A25, 5-[4-[[4-[2-[4-[3-[(2,6-Dioxopiperidin-3-yl)amino]phenyl]piperazin-1-yl]acetyl]piperazin-1-yl]methyl]phenyl]-3-[3-[[ethyl(methyl)sulfamoyl]amino]-2,6-difluorobenzoyl]-1H-pyrrolo[2,3-b]pyridine; 2,2,2-trifluoroacetic acid] | 101 nM | 18% | 
CCN(C)S(=O)(=O)Nc1ccc(F)c(C(=O)c2c[nH]c3ncc(-c4ccc(CN5CCN(C(=O)CCCN6CCC(c7ccc(NC8CCC(=O)NC8=O)cc7)CC6)CC5)cc4)cc23)c1F (centres unmarked) [Example A26, 5-[4-[[4-[4-[4-[4-[(2,6-Dioxopiperidin-3-yl)amino]phenyl]piperidin-1-yl]butanoyl]piperazin-1-yl]methyl]phenyl]-3-[3-[[ethyl(methyl)sulfamoyl]amino]-2,6-difluorobenzoyl]-1H-pyrrolo[2,3-b]pyridine; 2,2,2-trifluoroacetic acid] | 166 nM | 19% | 
O=C1CCC(Oc2ccc(C3CCN(C(=O)NC4CCN(Cc5ccc(-c6cnc7[nH]cc(C(=O)c8c(F)ccc(NS(=O)(=O)N9CCCC9)c8F)c7c6)cc5)CC4)CC3)cc2)C(=O)N1 (centres unmarked) [Example A27, N-[1-[[4-[3-[2,6-Difluoro-3-(pyrrolidin-1-ylsulfonylamino)benzoyl]-1H-pyrrolo[2,3-b]pyridin-5-yl]phenyl]methyl]piperidin-4-yl]-4-[4-(2,6-dioxopiperidin-3-yl)oxyphenyl]piperidine-1-carboxamide; formic acid] | 104 nM | 30% | 
